According to article PMC9367672, “In vitro differences in toddalolactone metabolism in various species and its effect on cytochrome P450 expression” (Pharmaceutical Biology, 2022):
Read-outs that look alike come from different tables or passages of the source.

Assays:
[1] = Metabolic stability assessment in monkey liver microsomes; format: in vitro ADME; conditions: pH 7.4, MLMs, toddalolactone 20 μM, 0-90 min
Procedure: The CYP reaction system (200 μL) consisted of 0.1 M potassium phosphate buffer (pH 7.4), an NADPH-generating system (1 mM NADPH, 10 mM G-6-P, 1 unit/mL G-6-PD, 4 mM MgCl2), and liver microsomes or recombinant human microsomes (supersomes). Each of the in vitro enzymatic assays using liver microsomes was linear with respect to incubation time and amount of protein. After a pre-incubation at 37 °C for 3 min, the reactions were initiated by adding NADP^+. After incubating for 60 min, the reactions were quenched by adding 200 μL of ice-cold acetonitrile. Samples were centrifuged at 18,000 g for 15 min at 4 °C and 10 μL of supernatant was analyzed using an HPLC system. […]
In the UGT reaction system, liver microsomes were incubated in 200 μL of the reaction system containing 4 mM UDPGA, 5 mM MgCl2, 20 µg/mL alamethicin, and 50 mM Tris-HCl buffer (pH 7.4). […] After centrifugation at 18,000 g for 15 min, 10 μL of the supernatant was analyzed by HPLC.
Toddalolactone (20 μM) was incubated with different liver microsomes, including HLMs, DLMs, PLMs, MLMs, RAMs, RLMs or MIMs in oxidative metabolism and glucuronidation reaction systems. […] The mixtures were centrifuged at 18,000 g for 15 min at 4 °C and then 10 μL of the supernatant was analyzed by HPLC. […]
The peak areas of toddalolactone and its metabolites were detected using a HPLC system (Shimadzu, Kyoto, Japan). […]

[2] = Enzyme kinetics of toddalolactone metabolism in mouse liver microsomes (oxidative metabolism); format: in vitro ADME; conditions: pH 7.4; MOMs (mouse liver microsomes); P450-catalyzed oxidation; P2 formation; Vmax/Km
Procedure: The CYP reaction system (200 μL) consisted of 0.1 M potassium phosphate buffer (pH 7.4), an NADPH-generating system (1 mM NADPH, 10 mM G-6-P, 1 unit/mL G-6-PD, 4 mM MgCl2), and liver microsomes or recombinant human microsomes (supersomes). Each of the in vitro enzymatic assays using liver microsomes was linear with respect to incubation time and amount of protein. After a pre-incubation at 37 °C for 3 min, the reactions were initiated by adding NADP^+. After incubating for 60 min, the reactions were quenched by adding 200 μL of ice-cold acetonitrile. Samples were centrifuged at 18,000 g for 15 min at 4 °C and 10 μL of supernatant was analyzed using an HPLC system. NADPH or CYP enzyme sources were not used in the control group to ensure that the metabolic reactions were CYP- and NADPH-dependent. All incubation assays were completed in triplicate. The data are presented as mean ± standard deviation (SD).
The enzyme kinetics of toddalolactone in oxidative metabolism and glucuronidation were determined by incubating liver microsomes (0.2 mg/mL) or CYPs (15 nM) with different concentrations of toddalolactone (1–200 μM). […] The in vitro intrinsic clearance (CLint) was calculated based on the Vmax/Km ratio. Metabolites were quantified using the standard curve for toddalolactone because of the absence of metabolite standards. […]
The enzyme kinetics in oxidative metabolism and glucuronidation of toddalolactone were studied, and preliminary experiments were performed to ensure that metabolites were formed in the linear range of both reaction time and microsomal protein concentration. […] Based on the results of toddalolactone metabolism in different species, the kinetic parameter values in RLMs, DLMs, MLMs, HLMs, RAMs, MIMs, PLMs, CYP1A1 and CYP3A5 were calculated using P4, P4, P4, P4, P2, P2, P4, P4 and P4 data in oxidative metabolism, respectively. In the glucuronidation reaction, the kinetic parameter values in RLMs, MLMs, HLMs, RAMs and PLMs were calculated using P5, P6, P6, P6 and P5 data, respectively.

RLMs = assay: Prediction of in vivo hepatic clearance in rats from RLM kinetics; format: in vitro ADME, rat
Procedure: The in vivo hepatic clearances in oxidative metabolism and glucuronidation of toddalolactone were calculated using Equations (4)–(6) (Li et al. [2008]): (4) CLint in vitro=∑i=1nVmax(Mi)/Km(Mi) (5) CLint in vivo=CLint in vitro⋅SF (6) CLH=QH⋅fu⋅CLint in vivo/QH+fu⋅CLint in vivo where SF is the milligrams of microsomal protein per gram of liver multiplied by the grams of liver weight; CLH is hepatic clearance; fu is the unbound fraction in the blood (the value of fu was set to 1 due to the absence of available data for toddalolactone); QH is the blood flow in the liver; and Mi is the metabolite of toddalolacone. The physiological parameters to calculate intrinsic clearance were as follows. The liver weight of dogs, rats and humans were 32, 40 and 25.7 g/kg body weight, respectively; the content of microsomal protein was 77.9, 44.8 and 48.8 mg/g of liver; and the blood flow in the liver was 30.9, 55.2 and 20.7 mL/(min ⋅ kg), respectively (Naritomi et al. [2001]).

Work on `COc1cc2oc(=O)ccc2c(OC)c1C[C@@H](O)C(C)(C)O` [toddalolactone] yielded a half-life at 20 μM ([1]; CYP incubation system, read-out: half-life value (T1/2)) of 245 min, a half-life at 20 μM ([1]; UGT incubation system, read-out: T1/2 value) of 66 min and a microsomal CLint [2] of 1.61 µL/min/mg. The “CLH versus hepatic blood flow (QH)” value (RLMs; RLMs) was 1.52%, the “clearance class according to predicted CLH” value (RLMs; rats) was “low-clearance (low-clearance drugs (<30% liver blood flow))” and the “in vivo hepatic clearance (CLH)” value (RLMs; rats, predicted from kinetic parameters of P1–P6, fu set to 1) was 1.12 mL/(min/kg body weight).
